This is an account of results in patent US5286648A, “A84575 antibiotics” (Eli Lilly and Company, priority 1991, dated 1994).

≈ marks a conversion by molar mass, not a printed value. Like-named read-outs stand apart in the source and are kept apart here. Where a SMILES comes first, the peptide text is derived from it. Bridges are numbered along the chain shown (N, C = ends). [ ]: non-standard residue; d: D form. The star is where a group is joined. Ileψ(thiazoline)Cys = CC[C@H](C)[C@H](N)C1=N[C@H](C(=O)*)CS1; dOrn = NCCC[C@@H](N)C(=O)O

In assay [1] the test system is culture A84575. Nature of the assay: Resistance of culture A84575 to antibiotics (antibiotic sensitivity discs, ISP No. 2 agar). In kind it is cell-based, Streptosporangium carneum. The following applies: disc. The method, then: Resistance to antibiotics was measured by padding antibiotic sensitivity discs (Difco) onto the surface of seeded ISP No. 2 agar plates. Resistance was scored as (+) when no zone of inhibition was observed, and as (-) when a zone of inhibition was observed.

The test system of assay [2] is culture A84575. The description is as above. In kind it is cell-based, Streptosporangium carneum. The following applies: 50 μg/mL.
A further assay concerns Staphylococcus aureus. Briefly: In vitro antibacterial activity (Table 5), MIC. In kind it is cell-based.
Assay [3] relates to Staphylococcus epidermidis. Nature of the assay: In vitro antibacterial activity (Table 5), MIC. In kind it is cell-based, S. epidermidis.
A further assay relates to Streptococcus A. Briefly: In vitro antibacterial activity (Table 5), MIC. In kind it is cell-based. To be noted: strain C203.
The test system of another assay is Streptococcus pneumoniae. Nature of the assay: In vitro antibacterial activity (Table 5), MIC. In kind it is cell-based, S. pneumoniae. The following applies: strain PARK.
A further assay deals with Streptococcus D. Briefly: In vitro antibacterial activity (Table 5), MIC. In kind it is cell-based.
The test system of the next assay is Haemophilus influenzae. Briefly: In vitro antibacterial activity (Table 5), MIC. In kind it is cell-based.

Consider `CCC[C@@H]1C[C@@H](C(=O)N[C@@H]([C@H]2O[C@H](SC)[C@H](O)[C@@H](O)[C@H]2O)[C@@H](C)O)N(C)C1` [lincomycin], for which the Resistance to antibiotics result with culture A84575 [1] (2 μm) is listed as “resistant”.

Regarding `CO[C@H]1C[C@H](O[C@H]2[C@H](C)[C@@H](O[C@@H]3O[C@H](C)C[C@H](N(C)C)[C@H]3O)[C@@H](C)C[C@@]3(CO3)C(=O)[C@H](C)[C@@H](O)[C@@H](C)[C@@H](C)OC(=O)[C@@H]2C)O[C@@H](C)[C@@H]1O` [oleandomycin], the Resistance to antibiotics entry with culture A84575 [1] (15 μm) was “sensitive”.

With `CC1(C)S[C@@H]2[C@H](NC(=O)Cc3ccccc3)C(=O)N2[C@H]1C(=O)O` [penicillin G], the Resistance to antibiotics entry with culture A84575 [1] (10 units) was “resistant”.

Regarding lysozyme, the Sensitivity to lysozyme result in the assay with culture A84575 [2] was “sensitive”.

As for `CO[C@H]1/C=C/O[C@@]2(C)Oc3c(C)c(O)c4c(O)c(c(/C=N/N5CCN(C)CC5)c(O)c4c3C2=O)NC(=O)/C(C)=C\C=C\[C@H](C)[C@H](O)[C@@H](C)[C@@H](O)[C@@H](C)[C@H](OC(C)=O)[C@@H]1C` [rifampin], in the assay with culture A84575 [1] (5 μm), the Resistance to antibiotics result is on record as “sensitive”.

Take `CO/N=C(\C(=O)N[C@@H]1C(=O)N2C(C(=O)O)=C(COC(C)=O)CS[C@H]12)c1csc(N)n1` [Standard]: the MIC in the assay with Staphylococcus aureus was found to be 16 µg/mL (≈ 35.1 µM); with Staphylococcus aureus (strain U41, read-out: MIC) it was 4 µg/mL (≈ 8.78 µM); in the assay with Staphylococcus aureus (strain X1.1, read-out: MIC), 2 µg/mL (≈ 4.39 µM); in the assay on Staphylococcus aureus (strain X400, read-out: MIC) it was 128 µg/mL (≈ 281 µM); in assay [3] (strain 222), 2 µg/mL (≈ 4.39 µM); in assay [3] (strain 270), 8 µg/mL (≈ 17.6 µM). The MIC is 0.015 µg/mL (≈ 0.0329 µM) in the assay with Streptococcus A; 0.015 µg/mL (≈ 0.0329 µM) against Streptococcus pneumoniae; 128 µg/mL (≈ 281 µM) against Streptococcus D (strain 2041); > 128 µg/mL against Streptococcus D (strain X66); 0.015 µg/mL (≈ 0.0329 µM) in the assay on Haemophilus influenzae (Haemophilus influenzae, strain C.L., sensitive strain, read-out: MIC); “.015 µg/mL” against Haemophilus influenzae (strain 76, resistant strain).

In the case of `CC[C@H](C)[C@H](N)C1=N[C@H](C(=O)N[C@@H](CC(C)C)C(=O)N[C@H](CCC(=O)O)C(=O)N[C@H](C(=O)N[C@H]2CCCCNC(=O)[C@H](CC(N)=O)NC(=O)[C@@H](CC(=O)O)NC(=O)[C@H](Cc3cnc[nH]3)NC(=O)[C@@H](Cc3ccccc3)NC(=O)[C@H]([C@@H](C)CC)NC(=O)[C@@H](CCCN)NC2=O)[C@@H](C)CC)CS1` [bacitracin] ({Ileψ(thiazoline)Cys}-L[dE]IK[dOrn]I[dF]H[dD]N; lactam 4-C), in the assay with culture A84575 [1] (10 units), the Resistance to antibiotics entry is reported as “resistant”.
